Target: T1, β-amyloid (Aβ1-42) (Homo sapiens, UniProt P05067)
T1 construct: β-amyloid (Aβ1-42, AnaSpec Inc, USA) was obtained; purchased AnaSpec Inc, USA
Assay: Beta-amyloid aggregation inhibition, fluorescence analysis (Thioflavin T assay)
Assay type: biochemical
Conditions: compound 10 μM; for Increased RFU (% of Pos.Cont.): aggregated β-amyloid compared to the positive control (no compound) = 100; for decreased aggregation compared with the positive control: positive control taken as 100%
Protocol: The beta-amyloid aggregation inhibitory effect of quercetin 3-O-[3-O″-(E)-p-coumaroyl][β-D-glucopyranosyl-(1→3)-O-α-L-rhamnopyranosyl-(1→6)-O-β-D-glucopyranoside] and quercetin 3-O-[3-O″-(E)-p-coumaroyl][α-L-rhamnopyranosyl-(1→6)-O-β-D-glucopyranoside] was determined by fluorescence analysis (Thioflavin T assay). Specifically, β-amyloid (Aβ1-42, AnaSpec Inc, USA) was obtained and used at a concentration of 0.1 mg/ml. It was stored at −80° C. prior to use. Each of morin (20 μM), phenol red (20 μM), quercetin 3-O-[3-O″-(E)-p-coumaroyl][β-D-glucopyranosyl-(1→3)-O-α-L-rhamnopyranosyl-(1→6)-O-β-D-glucopyranoside] (1 mg/ml), and quercetin 3-O-[3-O″-(E)-p-coumaroyl][α-L-rhamnopyranosyl-(1→6)-O-β-D-glucopyranoside] (1 mg/ml) was diluted to these concentrations in DMSO. In order to determine the degree of inhibition of Aβ1-42 aggregation, each compound at the above concentration was diluted to 10 μM in 50 μL of 0.01 M sodium phosphate buffer solution. Then, 40 μL of 0.1 mg/ml Aβ1-42 was added thereto, followed by addition of 10 μL of 2 mM Thioflavin T. The fluorescence was then measured with a fluorescence spectrometer (RF-5300PC, SHIMADZU CORPORATION, Japan) at 37° C. and intervals of 5 minutes for 150 minutes. In the table above, “RFU” denotes relative fluorescence unit, and “increased RFU” indicates the amount of aggregated β-amyloid. “Increased RFU (% of Pos.Cont.)” indicates the percentage of aggregated β-amyloid compared to the positive control. “Novel substance 31” indicates quercetin 3-O-[3-O″-(E)-p-coumaroyl][β-D-glucopyranosyl-(1→3)-O-α-L-rhamnopyranosyl-(1→6)-O-β-D-glucopyranoside], and “novel substance 32” indicates quercetin 3-O-[3-O″-(E)-p-coumaroyl][α-L-rhamnopyranosyl-(1→6)-O-β-D-glucopyranoside].

T1 sequence (P05067 672-713 limits assumed): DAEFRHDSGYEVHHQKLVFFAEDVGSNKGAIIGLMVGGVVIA

Increased RFU (% of Pos.Cont.)	decreased aggregation compared with the positive control	Increased RFU (amount of aggregated β-amyloid) (Aβ1-42 0.1 mg/ml, 37° C., 150 minutes)	Compound
93.6%	6.4%	–	O=S1(=O)OC(c2ccc(O)cc2)(c2ccc(O)cc2)c2ccccc21 [Phenol Red, phenol red, reference compound]
78.6%	21.4%	11471 RFU	O=c1c(O)c(-c2ccc(O)cc2O)oc2cc(O)cc(O)c12 [Morin, morin, reference compound]

Reference: patent publication US10550142B2, “Quercetin-based compound” (AMOREPACIFIC CORPORATION, priority 2016, dated 2020)
